The values below are quoted from earlier work in patent US10314873B2, “Method of treatment of diseases using hoodia extracts” (HADASIT MEDICAL RESEARCH SERVICES & DEVELOPMENT LTD., priority 2008, dated 2019).

Data set [1] deals with hypothalamic neurons. The following applies: icv injection of purified P57.
The test system of data set [2] is Liver. The following applies: P57 studies.

For `C/C=C(\C)C(=O)O[C@@H]1C[C@H]2[C@@H](CC=C3C[C@@H](O[C@H]4C[C@H](OC)[C@H](O[C@H]5C[C@H](OC)[C@H](O[C@@H]6O[C@H](C)[C@@H](O)[C@H](OC)[C@H]6O)[C@@H](C)O5)[C@@H](C)O4)CC[C@@]32C)[C@@]2(O)CC[C@H](C(C)=O)[C@@]12C` [P57, (3β,12β,14β)-3-[(O-6-Deoxy-3-O-methyl-β-D-glucopyranosyl-(1→4)-O-2,6-dideoxy-3-O-methyl-β-D-ribohexopyranosyl-(1→4)-2,6-dideoxy-3-O-methyl-β-D-ribo-hexopyranosyl)oxy]-14-hydroxy-12-[[(2E)-2-methyl-1-oxo-2-butenyl]oxy]pregn-5-en-20-one], the “increase of ATP content in hypothalamic neurons” value in data set [1] is 50-150%. The “reduction of liver ATP content” value in data set [2] is reported as “about 60%”.
